Source: publication PMC6384891, “An automated microliter-scale high-throughput screening system (MSHTS) for real-time monitoring of protein aggregation using quantum-dot nanoprobes” (Scientific Reports, 2019)
Read-outs that look alike come from different tables or passages of the source.

Tests used:
Format in all cases: biochemical
Aβ42 [1] = biological target: T1, Aβ42 (Homo sapiens, UniProt P05067); assay: automated MSHTS system, Aβ aggregation inhibition imaged with QDAβ nanoprobe
T1 construct: Human Aβ42 (4349-v, Peptide Institute); purchased Peptide Institute 4349-v
T1 sequence (P05067 672-713 limits assumed): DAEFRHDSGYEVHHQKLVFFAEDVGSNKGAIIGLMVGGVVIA
Experimental: An outline of the automated MSHTS system developed in this study is as follows (Fig. 1e). First, sample solutions, such as natural extracts and/or chemical compounds, were diluted stepwise in a 384-well plate. The diluted samples in this plate were injected into a 1536-well plate at 2.5 µl per well (Supplementary Fig. S6a). […] The 1536-well plate was sealed, and each well was imaged by a fluorescence microscope system. After incubation to induce aggregation for 24 h at 37 °C, each well was imaged by a fluorescence microscope system. The images were analyzed to determine the SD values of fluorescence intensity of each pixel. The half-maximal effective concentration (EC50) was estimated from the SD values according to our previous method.
(§1) The automated MSHTS system used was based on the method described in the Supplementary Methods. In this study, EC50 values of the plant crude extract library and the compound library were measured by the automated MSHTS system and the manual MSHTS system[19],[20], respectively. All fluorescence micrograph images were taken using a 4x objective in the MSHTS systems.
Automated MSHTS system–sample preparation and mixing with Aβ
Sample preparation was carried out using Automated Workstation JANUS G3 (Perkin Elmer).
To make a dilution series of samples, dilution buffer (10%EtOH, 1×PBS) was aspirated ( asp. speed:
20 µl/s) using a conductive chip that can detect liquid level and injected (dsp. height: 0.75 mm, dsp. speed: 10 µl/s) into each well of a 384-well plate (384 Hard-shell micro plate HSP3951, BIO-RAD) without wells for injecting stoc k sample solution. Stock sample solutions were prepared, and were injected manually into the vacant wells of the 384-well plate. As a control without any inhibitor, dilution buffer alone was injected into the well instead of stock sample solution. The stock sample solution or control solution was aspirated (asp. height: 2 mm, asp. speed: 10 µl/s), injected (dsp. height: 4 mm, dsp. speed: 10 µl/s) into the next well containing the dilution buffer, and mixed by pipetting (asp. height: 2 mm, dsp. height: 4 m m , mix speed: 25 µl/s, mix cycles: 5). This dilution st ep was repeated five times, so that si x dilution series were prepared for each sample. The diluted samples in the 384-well plate were aspirated using a 384-chip head (asp. height: 1 mm, asp. speed:
3 µl/s) and injected (quadruplicate) (dsp. height: 1 mm, dsp. speed: 10 µl/s) into a 1536-well plate (1536 well FIA black plate, Greiner Bio-One) at 2.5 µl per well. […]
After centrifugation in a multi-well plate centrifuge, the 1536-well plate was observed by an inverted fluorescence microscope system (ECLIPSE Ti-E, Nikon) equipped with a color CCD camer a (DS-Ri2, Nikon). […]

Aβ42 [2] = biological target: T1, Aβ42; assay: manual MSHTS system, Aβ aggregation inhibition
Experimental: as §1, with “systems. […]” for “systems.”
concentrations of RA were incubated with 30 µM A β and 30 nM QD 655-labeled Aβ or QD605-labeled Aβ in a 1536-well plate according to our previous reports1,5. Fluorescence micrographs […]
presence of 600 and 120 µM RA.
(1 picture or pasted object on this page, not shown here) […]
(§2) QDAβ were incubated with various concentrations of chaperones i n a 1536-well plate for 24 h at 37 ° C and observed by fluorescence microscopy. C, E, and P indicate CRT , ERp57, and PDI, respectively. EC50 and the SD values were determined from the micrographs of three independent

tau MBD fragment = biological target: T2, tau MBD fragment (Mus musculus, UniProt P10637); assay: MSHTS system, tau aggregation inhibition with QDTau nanoprobe; settings: 10 µM tau, 50 nM QDTau, 10 µM heparin, 10 mM DTT, 24 h at 37 °C
T2 construct: added N-terminal methionine (from NdeI site) (N); made in house; host or cells: E. coli Rosetta (DE3) pLys, pET-21a(+)
T2 sequence (P10637 with tags, fused parts or gaps isoform P10637-5 limits assumed): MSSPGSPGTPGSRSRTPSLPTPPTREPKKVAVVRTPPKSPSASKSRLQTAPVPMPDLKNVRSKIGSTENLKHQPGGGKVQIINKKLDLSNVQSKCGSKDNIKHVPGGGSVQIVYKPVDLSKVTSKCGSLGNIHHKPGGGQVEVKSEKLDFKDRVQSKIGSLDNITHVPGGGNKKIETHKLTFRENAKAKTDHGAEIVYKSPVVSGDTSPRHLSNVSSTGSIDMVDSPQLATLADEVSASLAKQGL
From the text: In this study, we used the microtubule-binding domain (MBD) fragment of 4-repeat tau (Fig. 4a) to image tau aggregation. First, we examined the aggregated condition of tau in the presence of heparin, which formed paired helical-like filaments under physiological conditions in vitro, according to early reports[24],[25]. […] Since 4-repeat tau contains two Cys residues (C222 and C253), it may be necessary for aggregation to occur, to inhibit intramolecular disulfide crosslinking, as was reported in a previous report. […] When 10 μM tau was incubated in the presence of 10 mM DTT, the SD value reached a maximum (Supplementary Fig. S10c,d), so we decided to observe aggregation using 10 μM tau. […] We compared tau and Aβ aggregates by TEM observation. The morphology of tau and Aβ fibrils was difficult to distinguish (Fig. 4b). […] We also confirmed by TEM observation that the aggregation of tau and Aβ contained QD nanoprobes (Fig. 4d). These aggregations were directly observed by confocal microscopy in real time (Fig. 4e). […] The imaging method using a QD nanoprobe without a drying step as in TEM observation may be suitable for detailed observation of aggregate shapes in solution.
Supplementary Fig. S11 Inhibition of tau aggregation by RA (a) and spearmint extract (b). 10 µM tau, 50 nM QDTau, 10 µM heparin, 10 mM DTT were incubated with various concentrations of RA […]
for 24 h at 37 ° C and observed by fluorescence microscopy. EC50 and the SD values were determined from the micrographs of three independent wells.
(1 picture or pasted object on this page, not shown here)
as §2, with “Supplementary Fig. S12 Inhibition of tau and Aβ aggregation by chaperones. 10 µM tau, 50 nM QDTau, 10 µM heparin, 10 mM DTT were incubated with various concentrations of chaperon es in a 1536-well plate for 24 h at 37 °C and observed by fluorescence microscopy. 30 µM Aβ , 30 nM QDAβ” for “QDAβ”

Aβ = biological target: T3, Aβ (Homo sapiens, UniProt P05067); assay: ThT assay of Aβ aggregation
T3 construct: Human Aβ42 (4349-v, Peptide Institute); purchased Peptide Institute 4349-v
T3 sequence (P05067 672-713 limits assumed): as the sequence (P05067 672-713 limits assumed) above
Experimental: The ThT assay was conducted according to the method of Levine[10] modified in our laboratory.

[3] = compound library, Aβ aggregation, read-out: EC50 by MSHTS system (MA), Fig. 3
[4] = 1st screening, read-out: EC50 [µM] by MSHTS system, Supplementary Table S2 (converted)
[5] = screening of compound library by MSHTS
[6] = 2nd screening, tropolone derivatives, read-out: EC50 [µM] by MSHTS system, Supplementary Table S3 (converted)
[7] = tropolone derivatives, read-out: ThT [µM], EC50, Supplementary Table S4 (converted)
[8] = Aβ aggregation, read-out: EC50 by ThT assay (TA), Fig. 3
[9] = 30 µM Aβ, 30 nM QDAβ, 24 h at 37 °C, read-out: EC50 (μM) Aβ

O=C(/C=C/c1ccc(O)c(O)c1)O[C@H](Cc1ccc(O)c(O)c1)C(=O)O [RA, rosmarinic acid]
EC50 (Aβ42 [1]; 25 µM Aβ, 25 nM QDAβ, 1536-well plate, 24 h at 37 °C, average of 61 sets, read-out: EC50 of Aβ aggregation inhibition, positive control): 26.9 ± 4.57 µM | Aβ aggregation inhibition at 120 µM, mixed by pipetting 10 times (Aβ42 [1]; 120 µM, pipetting 10 times): did not inhibit | Aβ aggregation inhibition at 120 µM, mixed by pipetting three or five times (Aβ42 [1]; 120 µM, pipetting three or five times): inhibited | Aβ aggregation at 300 and 60 µM (Aβ42 [1]; 300 and 60 µM, 25 µM Aβ, 24 h at 37 °C): inhibited | Aβ aggregation at 600 and 120 µM (Aβ42 [2]; 600 and 120 µM, 30 µM Aβ, 30 nM QD655- or QD605-labeled Aβ): inhibited | EC50 of tau aggregation inhibition (in words) (tau MBD fragment): could not be determined

O=c1ccc(/N=N/c2ccc([N+](=O)[O-])cc2)ccc1O [TR-001]
EC50 (Aβ42 [2]; [3]): 258 µM

Oc1cc2ccccc2cc1O [MO-038]
EC50 (Aβ42 [2]; [4]): 31.4 µM | Aβ aggregation inhibitory activity (in words) (Aβ42 [2]; [5]): active

O=c1ccc(/N=N/c2cc(C(F)(F)F)cc(C(F)(F)F)c2)ccc1O [TR-004]
Aβ aggregation inhibitory activity (in words) (Aβ42 [2]; [5]): no activity

CN(C)c1ccc(B(O)O)cc1 [MO-074]
EC50 (Aβ42 [2]; [4]): 53.1 µM | Aβ aggregation inhibitory activity (in words) (Aβ42 [2]; [5]): active

O=c1ccc(/N=N/c2cccc([N+](=O)[O-])c2)ccc1O [TR-002]
EC50 (Aβ42 [2]; [6]): 232 µM

COc1ccc(-c2cccc([N+](=O)[O-])c2)ccc1=O [MO-007]
EC50 (Aβ42 [2]; [3]): 144 ± 62 µM | Aβ aggregation inhibitory activity (in words) (Aβ42 [2]; [5]): active

N#Cc1cccc(/N=N/c2ccc(O)c(=O)cc2)c1 [TR-027]
EC50 (Aβ42 [2]; [6]): 38.7 µM | EC50 (Aβ; [7]): 83 µM

Nc1ccc(O)c(=O)cc1 [MO-009]
EC50 (Aβ42 [2]; [4]): 19.1 µM | Aβ aggregation inhibitory activity (in words) (Aβ42 [2]; [5]): active | EC50 (Aβ; [7]): 87.6 µM

COc1ccc(-c2ccc([N+](=O)[O-])cc2)ccc1=O [MO-011]
EC50 (Aβ42 [2]; [3]): 200 ± 66 µM | Aβ aggregation inhibitory activity (in words) (Aβ42 [2]; [5]): active

O=c1ccc(-c2ccc([N+](=O)[O-])cc2)ccc1O [MO-010]
EC50 (Aβ42 [2]; [4]): 52.5 µM | Aβ aggregation inhibitory activity (in words) (Aβ42 [2]; [5]): active | EC50 (Aβ; [8]): 144 ± 29 µM

O=C1C=CC(=O)C=C1 [MO-100]
Aβ aggregation inhibitory activity (in words) (Aβ42 [2]): active | EC50 (Aβ42 [2]): 56 µM

O=c1ccc(/N=N/c2cc([N+](=O)[O-])cc([N+](=O)[O-])c2)ccc1O [TR-003]
EC50 (Aβ42 [2]; tropolone derivatives, read-out: MSHTS [µM], EC50, Supplementary Table S4): 6.6 µM | EC50 (Aβ; [7]): 18.4 µM

Protein disulfide isomerase [PDI]
EC50 (Aβ42 [2]; [9]): 1 ± 0.206 µM | EC50 (tau MBD fragment): 12.7 ± 4.6 µM

O=Nc1ccc(O)c(=O)cc1 [MO-020]
EC50 (Aβ42 [2]; [3]): 154 ± 23 µM | Aβ aggregation inhibitory activity (in words) (Aβ42 [2]; [5]): active | EC50 (Aβ; [8]): 152 ± 15 µM

O=c1cccccc1O [MO-073]
EC50 (Aβ; [8]): 1610 µM

O=c1ccc(-c2cccc([N+](=O)[O-])c2)ccc1O [MO-006]
EC50 (Aβ; [7]): 75 µM

N#Cc1ccc(/N=N/c2ccc(O)c(=O)cc2)cc1C(F)(F)F [TR-007]
EC50 (Aβ42 [2]; [6]): 13.9 µM | EC50 (Aβ; [8]): 4.86 ± 0.9 µM

B1: calreticulin (protein, UniProt P27797 18-417, looked up)
Calreticulin: EPAVYFKEQFLDGDGWTSRWIESKHKSDFGKFVLSSGKFYGDEEKDKGLQTSQDARFYALSASFEPFSNKGQTLVVQFTVKHEQNIDCGGGYVKLFPNSLDQTDMHGDSEYNIMFGPDICGPGTKKVHVIFNYKGKNVLINKDIRCKDDEFTHLYTLIVRPDNTYEVKIDNSQVESGSLEDDWDFLPPKKIKDPDASKPEDWDERAKIDDPTDSKPEDWDKPEHIPDPDAKKPEDWDEEMDGEWEPPVIQNPEYKGEWKPRQIDNPDYKGTWIHPEIDNPEYSPDPSIYAYDNFGVLGLDLWQVKSGTIFDNFLITNDEAYAEEFGNETWGVTKAAEKQMKDKQDEEQRLKEEEEDKKRKEEEEAEDKEDDEDKDEDEEDEEDKEEDEEEDVPGQAKDEL
notes: chaperone
EC50 (Aβ42 [2]; [9]): 0.191 ± 0.04 µM | EC50 (tau MBD fragment): 0.843 ± 0.047 µM

B2: ERp57: chaperone (protein, UniProt P30101 25-505, looked up)
Protein disulfide-isomerase A3: SDVLELTDDNFESRISDTGSAGLMLVEFFAPWCGHCKRLAPEYEAAATRLKGIVPLAKVDCTANTNTCNKYGVSGYPTLKIFRDGEEAGAYDGPRTADGIVSHLKKQAGPASVPLRTEEEFKKFISDKDASIVGFFDDSFSEAHSEFLKAASNLRDNYRFAHTNVESLVNEYDDNGEGIILFRPSHLTNKFEDKTVAYTEQKMTSGKIKKFIQENIFGICPHMTEDNKDLIQGKDLLIAYYDVDYEKNAKGSNYWRNRVMMVAKKFLDAGHKLNFAVASRKTFSHELSDFGLESTAGEIPVVAIRTAKGEKFVMQEEFSRDGKALERFLQDYFDGNLKRYLKSEPIPESNDGPVKVVVAENFDEIVNNENKDVLIEFYAPWCGHCKNLEPKYKELGEKLSKDPNIVIAKMDATANDVPSPYEVRGFPTIYFSPANKKLNPKKYEGGRELSDFISYLQREATNPPVIQEEKPKKKKKAQEDL
EC50 (Aβ42 [2]; [9]): 0.321 ± 0.073 µM | EC50 (tau MBD fragment): 4.79 ± 1.19 µM
